Test results: patent US20070179137A1, “Screening of anti-viral drugs and pharmaceuticals composition containing thiazolidinone derivatives” (priority 2004, published 2007)
Converted amounts (≈) assume the structure as drawn.

Legend:
[1] = test system: heparin; assay: Direct interaction of inhibitor compounds with immobilized heparin (pre-incubation versus co-incubation with GBVP); type: binding; conditions: for Inhibition (%) Co-incubation: GBVP co-incubated with compound for 90 min in control wells; for Inhibition (%) Pre-Incubation: compound pre-incubated with immobilized heparin 90 min, washed, then GBVP added
Protocol: Compounds found to be suitable for further development and chemical optimization may be further subjected to a second screening, identifying those that directly bind to heparin. Individual compounds are incubated with immobilized heparin in the absence of CMV envelope glycoprotein B. After washing of the plates to remove all unbound compound, CMV envelope glycoprotein B is added. At this time, in separate wells, CMV envelope glycoprotein B is co-incubated with the test compounds and the standard assay protocol is followed. Test compounds which bind directly and irreversibly to heparin are identified by comparing the results of pre-incubation versus co-incubation experiments.
96-well ELISA plates are coated with Heparin-BSA, then blocked with BSA as described in Example 1. GBVP Hit Compounds, at final concentration 0.1-200 μM, are incubated in the ELISA plate for 90 min, and then washed with incubation buffer. After washing, GBVP is added to the wells pre-incubated with compounds. At the same time, in separate control wells, GBVP is co-incubated with Hit Compounds for 90 min. Following the incubation, GBVP bound to the plate is quantified by antibody conjugated to horse radish peroxidase and OD measurement as described in Example 1.

[2] = test system: Varicella Zoster Virus (VZV); assay: Cytopathic effect (CPE) inhibition assay on Varicella Zoster Virus in HFF cells; type: cell-based; conditions: Human alphaherpesvirus 3, HFF, 240 h, ten days incubation
Protocol: Cytopathic effect (CPE) inhibition assays were performed on Varicella Zoster Virus (VZV) as follows. Low passage human foreskin fibroblast (HFF) cells were seeded into 96-well tissue culture plates 24 hours prior to use at a cell concentration of 2.5×10^5 cells per ml in 0.1 ml of MEM supplemented with 10% FBS. The cells were then incubated for 24 hours at 37° C. in a C02 incubator. After incubation, the medium was removed and 125 μl of candidate drug in growth medium (MEM with 10% FBS) was added to the first row in triplicate wells, all other wells containing 100 μl of media. The drug in the first row of wells was then diluted serially 1:5 throughout the remaining wells by transferring 25 μl using the Cetus liquid handling machine. After dilution of drug, 100 μl growth medium containing virus (2500 PFU per well) was added to each well, excluding cell control wells, which received 100 μl of growth medium only. The plates were then incubated at 37° C. in a CO2 incubator for ten days. After the incubation period, media was aspirated and the cells stained with a 0.1% crystal violet solution for four hours. The stain was then removed and the plates rinsed using tap water until all excess stain was removed. The plates were allowed to dry for 24 hours and then read on a BioTek plate reader at 620 nm. […]

[3] = Neutral red uptake cytotoxicity assay; conditions: human
[4] = test system: bovine viral diarrhea virus; assay: Inhibition of bovine viral diarrhea virus in MDBK cells; type: cell-based
From the text: (§1) Bovine viral diarrhea virus is related to HCV and may serve as a surrogate model for human hepatitis C virus (Yanagida K., et al., ibid).

[5] = Cytotoxicity in MDBK cells (IC50 used for SI); type: cell-based; conditions: bovine, MDBK (Madin-Darby bovine kidney) cells, value paired with EC50 to give SI
From the text: as §1

[6] = molecular target: T1, CMV envelope glycoprotein B binding to immobilized heparin (Human cytomegalovirus, UniProt P06473); assay: Inhibition of CMV envelope glycoprotein B binding to immobilized heparin by soluble heparin; conditions: soluble heparin 0.2-10 mg/ml, FIG. 2
T1 construct: purchased Research Diagnostics, INC; RDI-RCMVAG-B
T1 sequence (P06473 32-906): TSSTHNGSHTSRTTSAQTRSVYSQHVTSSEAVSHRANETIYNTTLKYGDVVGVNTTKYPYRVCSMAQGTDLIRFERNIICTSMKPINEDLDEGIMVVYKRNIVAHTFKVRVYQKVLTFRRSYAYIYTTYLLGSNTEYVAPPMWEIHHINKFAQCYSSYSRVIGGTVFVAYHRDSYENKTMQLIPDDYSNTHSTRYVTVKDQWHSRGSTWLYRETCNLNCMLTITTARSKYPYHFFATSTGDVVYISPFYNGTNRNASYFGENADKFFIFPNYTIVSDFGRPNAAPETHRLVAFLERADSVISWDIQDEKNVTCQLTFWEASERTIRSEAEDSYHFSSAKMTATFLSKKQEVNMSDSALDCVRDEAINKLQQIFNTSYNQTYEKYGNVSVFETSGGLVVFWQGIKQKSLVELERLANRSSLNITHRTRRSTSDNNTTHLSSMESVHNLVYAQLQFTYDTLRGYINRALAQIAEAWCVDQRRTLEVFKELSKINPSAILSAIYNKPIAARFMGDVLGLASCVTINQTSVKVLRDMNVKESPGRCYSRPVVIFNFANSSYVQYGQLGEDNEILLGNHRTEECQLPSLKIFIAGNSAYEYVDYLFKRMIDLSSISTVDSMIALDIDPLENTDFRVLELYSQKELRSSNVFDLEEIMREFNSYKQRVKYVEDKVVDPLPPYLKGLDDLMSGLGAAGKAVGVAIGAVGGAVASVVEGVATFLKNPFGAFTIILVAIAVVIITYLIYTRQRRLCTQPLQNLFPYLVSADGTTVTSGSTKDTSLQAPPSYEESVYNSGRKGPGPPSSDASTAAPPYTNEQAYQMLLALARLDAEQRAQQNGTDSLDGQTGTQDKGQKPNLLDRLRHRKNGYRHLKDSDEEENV
From the text: The present invention discloses for the first time the use of CMV envelope glycoprotein B for compound screening and for direct targeting of GAG binding sites. The screening method of the present invention is based on an ELISA assay for CMV envelope glycoprotein B interaction with heparin on 96-well plates, suitable for screening compound collections, newly developed by the inventors of the present invention. The assay measures binding of CMV envelope glycoprotein B to immobilized heparin. The amount of bound CMV envelope glycoprotein B is determined by an ELISA assay using a monoclonal antibody conjugated to horseradish peroxidase. […] Soluble heparin was found according to the present invention to inhibit CMV envelope glycoprotein B binding to immobilized heparin (FIG. 2). This method can be used with other specific GBVPs such as HSV-1 glycoproteins B, C, and D, HHV-7 glycoprotein B, and HCV envelope protein. Additionally, other GAGs are capable of replacing heparin in this kind of assay. […]
Porcine intestinal mucosa heparin conjugated to Bovine Serum Albumin (Heparin-BSA; Sigma Cat. No. H0403) at 5 mg/ml in Phosphate Buffered Saline (PBS; pH 6.5) was added to a 96-well polystyrene ELISA plate (NLNC Cat. No. 442404; 0.1 ml per well) and incubated over night at 4° C. […] The Optical Density (OD) of the samples was measured at 450 nm using an ELISA plate reader (Dynatech MR5000).

With `Cc1ccc2nc(N3CCN(C)CC3)c(C=C3SC(=S)N(Cc4ccccc4)C3=O)c(=O)n2c1` [Compound 5, 4H-Pyrido[1,2-a]pyrimidin-4-one, 3-[(3-phenylmethyl-4-oxo-2-thioxo-5-thiazolidinylidene)methyl]-2-(4-methyl-1-piperazinyl)-7-methyl-] the “Inhibition (%) Co-incubation” value [1] was 66% and the “Inhibition (%) Pre-Incubation” value [1] was 68%.
With `CCCCN1C(=O)/C(=C/c2c(N3CCN(C)CC3)nc3c(C)cccn3c2=O)SC1=S` [Compound 10, 4H-Pyrido[1,2-a]pyrimidin-4-one, 3-[(3-butyl-4-oxo-2-thioxo-5-thiazol-idinylidene)methyl]-9-methyl-2-(4-methyl-1-piperazinyl)-] the EC50 [2] was 3.2 µg/mL (≈ 6.99 µM), the CC50 at 7 days [3] was 11.8 µg/mL (≈ 25.8 µM) and the “Inhibition (%) Co-incubation” value [1] was 80%. For the same compound, the “Inhibition (%) Pre-Incubation” value [1] was 73%.
With `O=C(CN1C(=O)C(=C2SC(=S)N(CCS(=O)(=O)O)C2=O)c2ccccc21)Nc1cccc(C(F)(F)F)c1` [Compound 11, 5-[1,2-dihydro-2-oxo-1-[2-oxo-2-[[3-(trifluoromethyl)phenyl]amino]ethyl]-3H-indol-3-ylidene]-4-oxo-2-thioxo-3-thiazolidineethanesulfonic acid] the EC50 [2] was less than 0.03 µg/mL and the CC50 at 7 days [3] was greater than 100 µg/mL.
For `O=C1C(=Cc2c(NCCCn3ccnc3)nc3ccccn3c2=O)SC(=S)N1Cc1ccccc1` [Compound 25, 4H-Pyrido[1,2-a]pyrimidin-4-one, 3-[(3-phenylmethyl-4-oxo-2-thioxo-5-thiazolidinylidene)methyl]-2-[[3-(1H-imidazol-1-yl)propyl]amino]-], the “Inhibition (%) Co-incubation” value [1] was 67% and the “Inhibition (%) Pre-Incubation” value [1] was 89%.
In the case of `Cc1cccn2c(=O)c(C=C3SC(=S)N(Cc4ccccc4)C3=O)c(NCCN3CCOCC3)nc12` [Compound 26, 4H-Pyrido[1,2-a]pyrimidin-4-one, 3-[[3-(phenylmethyl)-4-oxo-2-thioxo-5-thiazolidinylidene]methyl]-2-[[2-(4-morpholinyl)ethyl]amino]-9-methyl-], the SI [4] is reported as greater than 17, the EC50 ([4]; Bovine viral diarrhea virus isolates and strains) is reported as 6 µM and the IC50 [5] is reported as greater than 100 µM.
With heparin [Soluble heparin] the “Inhibition of CMV envelope glycoprotein B binding to immobilized heparin” value [6] was “inhibit”.
